From US6214805A, “RNase L activators and antisense oligonucleotides effective to treat RSV infections” (priority 1997, dated 2001)

What was measured:
[1] = tested on: RSV 393 (clinical isolate); assay: Neutral red uptake assay in HEp-2 cells, RSV 393; type: cell-based, Respiratory syncytial virus; conditions: Table 12, neutral red
Protocol: (§1) This assay was performed by a modified method as described by Cavenaugh et al. (Cavenaugh et al. 1990, Invest. New Drugs 8:347-354). Briefly, medium was removed from each well of a plate scored for CPE from a CPE inhibition assay, 0.2 ml of neutral red (0.034% in PSS) was added to each of the wells of that plate and the plate incubated for 2 hr at 37° C. in the dark. The neutral red solution was removed from the wells and the wells rinsed twice with PBS (pH 7.4). Equal volumes (0.1 ml) of absolute ethanol and Sorenson citrate buffer (0.1 M sodium citrate, 0.1 M HCI, pH 4.2) were mixed together and added to each well. Plates were incubated in the dark for 30 min. at room temperature to solubilize the dye. The plates were then gently mixed on a 96-well plate adapted vortexer for 1 min. Absorbances at 540 nm and 450 nm were read with a microplate reader (Bio-Tek EL 1309; Bio-Tek Instruments, Inc. Winooski, Vt.). Absorbance values were expressed as percents of untreated controls and EC50 and IC50 values were calculated by regression analysis.
(§2) In this series, MP351 was added once a day for two days with fresh medium

RSV Long (A) [2] = assay: Neutral red uptake assay in HEp-2 cells, RSV strain Long; type: cell-based, Respiratory syncytial virus; conditions: Table 12, neutral red
Protocol: as §1, §2

RSV strain A2 [3] = assay: Antiviral activity in MA-104 cells, visual CPE; type: cell-based, Respiratory syncytial virus
Text: (§3) A comparison of the efficacies of spA4 -antiRSV3'3'T/(8281-8299) treatment and conventional ribarvirin treatment can be obtained by determining the RSV-inhibitory concentration and the cytotoxic concentration of each compound. Cultures of the human laryngeal carcinoma cell line HEp-2 and the […] renal cell line MA-104 were established and infected with an MOI=0.005. Cultures were fed twice daily. Treatment with either ribavirin or spA4 -antiRSV3'3'T/(8281-8299) was begun simultaneously with infection and continued for four days. Treatment was then withdrawn and the test read on day 5. The effects of treatment on RSV infection were reported as 1) an EC50, the concentration at which there was a 50% reduction in the observable cytopathic effects of infection and 2) an EC90, the concentration at which there was a 90% reduction in viral production. […] Therapeutic efficacy is estimated by the Selectivity Index, which is the ratio of IC50 /EC50.
(§4) as determined with RSV strain A2, MOI = 0.005
(§5) Fresh medium and oligo or ribavirin added twice daily for 4 d and test read
(§6) EC50 effective concentration to reduce RSV-induced CPE by 50%.

[4] = in vivo; cited from earlier work
RSV strain A2 [5] = assay: Virus yield reduction in MA-104 cells; type: cell-based, Respiratory syncytial virus; conditions: human respiratory syncytial virus, MA104, 96 h, RSV yield reduced by 90%, MOI = 0.005, added twice daily for 4 d
Text: as §3, §4, §5
EC90 effective concentration to reduce RSV yield by 90%.

RSV Long (A) [6] = assay: CPE inhibition assay in HEp-2 cells, RSV strain Long; type: cell-based, Respiratory syncytial virus; conditions: Table 12, CPE
Protocol: (§7) The CPE inhibition assay used in this study was performed as described by Sidwell and Huffman (Sidwell et al., 1971, Appl. Microbiol. 22:7979-7801) with slight modifications. Varying concentrations of test compounds were added to each plate containing near confluent cell monolayers (1×10^5 cells/well) followed immediately by the addition of virus at a multiplicity of infection (MOI)=0.01, and then incubated at 37° C. On the following day, the medium from each plate was removed and fresh compound added. The assay was stopped at the end of the sixth day when the virus cytopathic effect in the virus infected, untreated control cells affected all cells. All compounds were assayed for virus inhibition in quadruplicate and for cytotoxicity in duplicate. For each compound, two wells were set aside as uninfected, untreated cell controls per test and four wells per test received virus only and represented controls for virus replication. […] For all CPE-based assays, the 50% effective concentration (EC50) was calculated by regression analysis using the means of the CPE ratings at each concentration of compound.
as §2

RSV strain A2 [7] = assay: Antiviral activity in Hep-2 cells, neutral red (reduction of RSV-induced CPE); type: cell-based, Respiratory syncytial virus
Text: as §3
determined with RSV strain A2, MOI = 0.005
as §5, §6

Hep-2 Cells = assay: Cytotoxicity by morphological changes in HEp-2 cells (CPE inhibition assay); type: cell-based, human; conditions: Homo sapiens
Protocol: Embryonic African green monkey kidney cells (MA-104) were obtained from BioWhittaker, Inc. (Walkersville, Md.). HEp-2 cells were propagated from a human epidermoid carcinoma of the larynx (American Type Culture Collection, ATCC; Rockville, Md.). The cells were grown in minimal essential medium. (MEM, Gibco-BRL, Gaitherburg, Md.) supplemented with 0.1% NaHCO3 and 10% fetal bovine serum (FBS, Hyclone Laboratories, Logan Utah.). When performing antiviral assays, serum was reduced to 2% and 50 μg/ml gentamicin (Sigma Chemical Company, St. Louis, Mo.) was added to the medium.
Morphological changes due to compound cytotoxicity were graded on a scale of 0-5; grade 5 was defined as 100% cytotoxicity. The 50% cytotoxic dose (IC50 was calculated by regression analysis. A selective index (S.I.) was calculated for each compound [S.I.=(IC50)/(EC50 ].

MA-104 Cells = assay: Cytotoxicity to MA-104 cells (visual and dye uptake, rapidly dividing cells); type: cell-based, murine; conditions: MA104
Text: as §3
IC50 50% inhibitory concentration for cytotoxicity to cells (visual

RSV CH18537 (B) = assay: CPE inhibition assay in HEp-2 cells, RSV strain CH18537; type: cell-based, Respiratory syncytial virus; conditions: Table 12, CPE
Protocol: as §7, §2

RSV strain A2 [8] = assay: Virus yield reduction assay in HEp-2 cells; type: cell-based, Respiratory syncytial virus; conditions: human respiratory syncytial virus, compound added twice daily
Protocol: EC50 & EC90 : concentration required to reduce virus (RSV strain
Both compounds were added to the cells twice daily.

[9] = human respiratory syncytial virus, 48 h, once a day for two days

**Q.** Which SI [1] does the source give for `NC(=O)c1ncn([C@@H]2O[C@H](CO)[C@@H](O)[C@H]2O)n1` [Ribavirin] here?
**A.** Its SI is 24.

**Q.** What about the EC50 [1, 9] of the same compound?
**A.** The EC50 was 4 µM.

**Q.** And the SI (RSV Long (A) [2])?
**A.** Its SI is 23.

**Q.** What about the EC50 (RSV Long (A) [2]; [9]) of the same compound?
**A.** The EC50 was 12 µM.

**Q.** What about the “SI selectivity index = IC50/EC50” value (RSV strain A2 [3]) of the same compound?
**A.** The value was 210.

**Q.** And the EC50 (RSV strain A2 [3]; human respiratory syncytial virus, MA104, 96 h, visual CPE, MOI = 0.005, added twice daily for 4 d, read on d 5)?
**A.** Its EC50 is 1 µM.

**Q.** And the “SI selectivity index = IC50/EC50” value (RSV strain A2 [3]; listed as ribavirin)?
**A.** Its value is “about 200”.

**Q.** And the half-life [4]?
**A.** The half-life was 40 days.

**Q.** What about the EC90 (RSV strain A2 [5]) of the same compound?
**A.** Its EC90 is 7 µM.

**Q.** And the SI (RSV Long (A) [6])?
**A.** Its SI is 17.

**Q.** What about the EC50 (RSV Long (A) [6]; [9]) of the same compound?
**A.** Its EC50 is 12 µM.

**Q.** And the “SI selectivity index = IC50/EC50” value (RSV strain A2 [7])?
**A.** The value was 10.

**Q.** And the EC50 (RSV strain A2 [7]; human respiratory syncytial virus, 96 h, neutral red, MOI = 0.005, added twice daily for 4 d, read on d 5)?
**A.** The EC50 was 4 µM.

**Q.** And the IC50 (Hep-2 Cells; HEp-2, 0 h, Table 13, CPE, q.d., Day 0, HEp-2)?
**A.** The IC50 was 240 µM.

**Q.** And the IC50 (Hep-2 Cells; HEp-2, 24 h, Table 10, CPE, q.d. 1 day (added along with virus, never replenished), HEp2)?
**A.** Its IC50 is 230 µM.

**Q.** What about the IC50 (Hep-2 Cells; HEp-2, 24 h, Table 13, CPE, q.d., Day 1, HEp-2) of the same compound?
**A.** Its IC50 is 320 µM.

**Q.** And the IC50 (Hep-2 Cells; HEp-2, 48 h, Table 10, CPE, B.I.D. 2 days, HEp2)?
**A.** The IC50 was 230 µM.

**Q.** And the IC50 (Hep-2 Cells; HEp-2, 48 h, Table 13, CPE, q.d., Day 2, HEp-2)?
**A.** The IC50 was 320 µM.

**Q.** And the IC50 (Hep-2 Cells; HEp-2, 72 h, Table 10, CPE, B.I.D. 3 days, HEp2)?
**A.** Its IC50 is 720 µM.

**Q.** What about the IC50 (Hep-2 Cells; HEp-2, 72 h, Table 10, CPE, q.d. 3 days, HEp2) of the same compound?
**A.** The IC50 was 230 µM.

**Q.** And the IC50 (Hep-2 Cells; HEp-2, 96 h, Table 10, CPE, B.I.D. 4 days, HEp2)?
**A.** The IC50 was 230 µM.

**Q.** And the IC50 (Hep-2 Cells; HEp-2, 96 h, Table 10, CPE, q.d. 4 days, HEp2)?
**A.** The IC50 was 230 µM.

**Q.** What about the IC50 (Hep-2 Cells; HEp-2, Table 12, CPE, test with 393 (clinical isolate), HEp-2) of the same compound?
**A.** Its IC50 is 96 µM.

**Q.** What about the IC50 (Hep-2 Cells; HEp-2, Table 12, CPE, test with CH18537 (B), HEp-2) of the same compound?
**A.** Its IC50 is 208 µM.

**Q.** What about the IC50 (Hep-2 Cells; HEp-2, Table 12, CPE, test with Long (A), HEp-2) of the same compound?
**A.** The IC50 was 205 µM.

**Q.** What about the IC50 (MA-104 Cells) of the same compound?
**A.** The IC50 was 210 µM.

**Q.** What about the SI (RSV CH18537 (B)) of the same compound?
**A.** The SI was 52.

**Q.** What about the EC50 (RSV CH18537 (B); [9]) of the same compound?
**A.** Its EC50 is 4 µM.

**Q.** What about the EC50 (RSV strain A2 [8]; virus yield reduced by 50%) of the same compound?
**A.** The EC50 was 40 µM.

**Q.** And the EC90 (RSV strain A2 [8]; virus yield reduced by 90%)?
**A.** The EC90 was 80 µM.
